According to patent US7741344B2, “Process for preparing purified S-BEL and R-BEL and compositions thereof” (Washington University in St. Louis, priority 2002, dated 2010):

Tests used:
[1] = tested on: membrane-bound phosphatidate phosphohydrolase (PAP-2); experiment: Membrane-bound phosphatidate phosphohydrolase activity of A-10 cell membrane fraction; assay type: biochemical, rat; details: concentrations up to 200 μM BEL; FIG. 6A
Description: (§1) Measurement of Cytosolic and Membrane-bound Phosphatidate Phosphohydrolase Activities—A-10 cells were grown to confluency, washed twice in ice-cold phosphate-buffered saline, and harvested in lysis buffer (50 mM Tris-HCl, pH 7.4 containing 0.25 M sucrose and 0.2 mM DTT). After brief sonication utilizing a Vibra-Cell VC4O sonicator (5×1 s pulses at 30% power), the lysed cell suspension was centrifuged at 100,000×g for 1 hr to separate cytosolic and membrane fractions. In some tests, A-10 cells were washed and pretreated with BEL or ethanol vehicle (as described above for tests examining [^3H]-AA liberation) before isolation of cell homogenates. […] Reactions were terminated with 900 μL of 5% acetic acid and extracted into chloroform by the method of Bligh and Dyer (38) prior to separating dipaliitoyl glycerol by TLC utilizing chloroform: methanol: water (65:35:2) as the mobile phase prior to quantification by scintillation spectrometry.
(§2) A-10 cells plated on 100 mm dishes were washed 2× in ice-cold PBS and harvested in lysis buffer (50 mM Tris-HCl, pH 7.4 containing 0.25 M sucrose and 0.2 mM DTT). […] In panel B, intact A-10 cells were washed and pretreated with BEL or ethanol vehicle (as described in FIG. 5) before isolation of the cell homogenate and quantification of phosphatidate phosphohydrolase activity as described above. […]

[2] = tested on: phosphatidate phosphohydrolase in A-10 cells; experiment: Total phosphatidate phosphohydrolase activity in homogenates of intact A-10 cells pretreated with BEL; assay type: cell-based, rat; details: intact A-10 cells exposed to up to 100 μM; FIG. 6B
Description: as §1, §2

[3] = tested on: A-10 cells; details: cited from earlier work
[4] = tested on: A-10 smooth muscle cells; experiment: AVP-induced [3H]-arachidonic acid liberation from A-10 cells; assay type: cell-based, rat; details: 1 μM AVP, FIG. 5
Description: Quantification of [^3H]-Arachidonic Acid Liberation from A-10 Phospholipids—Rat aortic smooth muscle A-10 cells, cultured in 60 mm dishes (2.5×10^5 cells/dish), were radiolabeled with 0.5 μCi [^3H]-arachidonic acid per dish as previously described (29). Cells were washed once with DMEM containing 0.25% fatty acid free bovine serum albumin followed by two washes with DMEM alone. Cells were then incubated with the indicated concentrations of (R)-, (S)-, rac-BEL, or ethanol vehicle (0.1% final concentration) in DMEM for 20 min. This media was removed and the cells were then incubated with DMEM containing 10% heat-inactivated fetal bovine serum in the absence or presence of 1 μM AVP. In some tests, PMA (1 μM) or DOG (10 μM) was added to the medium containing AVP. After 5 mm, 1 ml of this medium was removed, lipids were extracted into 2 ml of chloroform/methanol/acetic acid (25:24:1 v/v) (38), and the remaining cells were scraped into 1 ml of deionized water prior to lipid extraction as described above. The chloroform layer was evaporated under nitrogen and the extracted lipids were separated by thin layer chromatography (petroleum ether/ethyl ether/glacial acetic acid 70:30:1). Regions containing fatty acids and phospholipids were scraped into vials and radioactivity was quantified by liquid scintillation spectrometry.
A-10 cells (2.5×10^5 cells/dish) were radiolabeled with [^3H]-arachidonic acid (0.5 μCi/dish) for 20 hrs. After washing to remove unincorporated [^3H]-arachidonic acid, cells were then incubated with either 1 μM or 5 μM (R)-BEL, (S)-BEL, rac-BEL, or ethanol vehicle (0.1%) in DMEM for 20 mm. This media was removed and the cells were then incubated with 3 ml of DMEM containing 10% heat-inactivated fetal bovine serum with or without 1 μM AVP. After 5 min, 1 ml of this medium was removed and lipids were extracted into 2 ml of chloroform/methanol/acetic acid (25:24:1). The remaining cells were scraped into 1 ml of deionized water and total lipids were extracted as described above. The chloroform layer was evaporated under nitrogen and the extracted lipids were separated by TLC. Regions containing fatty acids and phospholipids were scraped into vials and radioactivity was quantified by liquid scintillation spectrometry. Results are representative of four separate tests.
A-10 cells were radiolabeled with [^3H]-arachidonic acid, washed, and pre-incubated with 5 μM (S)-BEL or ethanol vehicle alone for 15 min as described in FIG. 5. DMEM media containing 10% heat-inactivated fetal bovine serum with or without 1 μM AVP was then added to the cells. After 5 min at 37° C., [^3H]-arachidonic acid released into the media and remaining within the cells (free and incorporated into phospholipids) was extracted into chloroform, separated by TLC, and quantified by liquid scintillation spectrometry as described in “Experimental Procedures”. Results are representative of three separate tests.

[5] = tested on: PAP-1 in human amnionic WISH cells; details: ≈25 μM; (34); cited from earlier work

## O=C1OC(=CBr)CCC1c1cccc2ccccc12 (racemic) [rac-BEL, Racemic (E)-6-(bromomethylene)-3-(1-naphthalenyl)-2H-tetrahydropyran-2-one]
[1]
  effect on membrane-bound (PAP-2) phosphatidate phosphohydrolase: lack of any effect
[2]
  total phosphatidate phosphohydrolase activity in comparison to ethanol-treated controls: did not inhibit
[3]
  release of IP2 or IP3 in A-10 cells: does not inhibit
[4]; 1 and 5 μM inhibitor
  AVP-induced increase in non-esterified [3H]-arachidonic acid (in words): significantly reduced
[5]
  inhibition of PAP-1 in human amnionic WISH cells: effectively inhibit

## O=C1O/C(=C/Br)CC[C@@H]1c1cccc2ccccc12 [(R)-BEL, (R)(E)-6-(bromomethylene)-3-(1-naphthalenyl)-2H-tetrahydropyran-2-one]
[4]; 5 μM inhibitor, 20 min pretreatment
  inhibition of AVP-induced AA release: about 10%
